Source: patent US12570655B2, “Cysteine covalent modifiers of AKT1 and uses thereof” (Terremoto Biosciences, Inc., priority 2023, dated 2026)
Like-named read-outs stand apart in the source and are kept apart here.

Columns and labels:
Assay type in all cases: cell-based
AKT1 E17K = biological target: T1, AKT1 E17K (Homo sapiens, UniProt P31749, E17K); assay: Live cell AKT1 E17K target engagement by NanoBRET competitive probe displacement; conditions: HEK293 cells transfected with kinase-NanoLuciferase fusion, 2 h at 37° C.
T1 construct: expressed in transfected cells; host or cells: HEK293
In short: (§1)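 HEK293 cells transiently expressing kinase–NanoLuc fusions overnight; treated with serial compound dilutions plus fluorescent ATP-competitive tracer at ~EC50, 2 h at 37 °C. BRET ratio E600/E460 read after substrate and extracellular luciferase inhibitor; IC50 from log(inhibitor) vs response Hill fit.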

AKT2 = biological target: T2, AKT2 (Homo sapiens, UniProt P31751); assay: Live cell AKT2 target engagement by NanoBRET competitive probe displacement; conditions: HEK293 cells transfected with kinase-NanoLuciferase fusion, 2 h at 37° C.
T2 construct: expressed in transfected cells; host or cells: HEK293
In short: as §1

AKT1 WT = biological target: T3, AKT1 WT (Homo sapiens, UniProt P31749); assay: Live cell AKT1 WT target engagement by NanoBRET competitive probe displacement; conditions: HEK293 cells transfected with kinase-NanoLuciferase fusion, 2 h at 37° C.
T3 construct: expressed in transfected cells; host or cells: HEK293
In short: as §1

[1] = test system: LAPC4 prostate cancer cells; assay: Antiproliferative effects in LAPC4 cells (CellTiter Glo); conditions: LAPC4 cells (AKT1 E17K allele), read-out: LAPC4 proliferation IC50
In short: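 LAPC4 prostate cancer cells carrying AKT1 E17K, grown in IMDM with 12% FBS, were seeded at 1,000 cells/well and exposed to compound dilutions for 72 h. Viability was read as intracellular ATP by CellTiter Glo luminescence, and IC50 was fitted with a log(inhibitor) vs. response Hill equation.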

T2 sequence (P31751 whole entry, the tested form may be a part): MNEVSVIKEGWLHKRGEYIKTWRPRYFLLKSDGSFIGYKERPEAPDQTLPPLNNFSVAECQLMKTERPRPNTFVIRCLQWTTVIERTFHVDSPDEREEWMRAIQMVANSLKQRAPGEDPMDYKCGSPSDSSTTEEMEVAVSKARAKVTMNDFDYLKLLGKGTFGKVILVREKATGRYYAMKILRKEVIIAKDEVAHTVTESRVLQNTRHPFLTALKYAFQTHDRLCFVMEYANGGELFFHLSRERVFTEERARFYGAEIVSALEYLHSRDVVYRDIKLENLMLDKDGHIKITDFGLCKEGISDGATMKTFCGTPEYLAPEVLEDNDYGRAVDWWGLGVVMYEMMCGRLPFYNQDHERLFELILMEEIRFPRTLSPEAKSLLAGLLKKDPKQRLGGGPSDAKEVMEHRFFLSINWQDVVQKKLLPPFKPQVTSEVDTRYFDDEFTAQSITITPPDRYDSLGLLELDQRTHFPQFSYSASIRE
T3 sequence (P31749 whole entry, the tested form may be a part): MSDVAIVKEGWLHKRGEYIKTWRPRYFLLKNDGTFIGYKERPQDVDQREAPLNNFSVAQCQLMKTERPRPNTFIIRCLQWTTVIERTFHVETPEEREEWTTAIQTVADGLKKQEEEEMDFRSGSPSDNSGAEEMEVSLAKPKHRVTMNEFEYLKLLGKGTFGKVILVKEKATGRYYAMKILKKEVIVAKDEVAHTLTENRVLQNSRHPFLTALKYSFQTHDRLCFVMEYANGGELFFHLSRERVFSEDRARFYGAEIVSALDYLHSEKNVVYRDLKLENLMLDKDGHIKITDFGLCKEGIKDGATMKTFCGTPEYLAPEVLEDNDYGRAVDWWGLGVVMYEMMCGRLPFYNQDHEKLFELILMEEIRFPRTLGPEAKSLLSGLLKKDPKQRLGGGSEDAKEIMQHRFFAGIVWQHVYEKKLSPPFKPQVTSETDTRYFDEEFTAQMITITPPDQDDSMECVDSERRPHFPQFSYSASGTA
T1 sequence (P31749 whole entry E17K, the tested form may be a part): as the sequence (P31749 whole entry, the tested form may be a part) above, with E17K counted along it

Structure (SMILES)	IC50 (AKT1 E17K)	IC50 (AKT2)	IC50 (AKT1 WT)	IC50 ([1]; Homo sapiens, LAPC4, 72 h)	IC50 ([1]; 72 h)
C=CC(=O)Nc1cc(F)ccc1C(=O)N[C@H]1CCc2cc(-n3c(-c4cccnc4N)nc4ccc(-n5cccn5)nc43)ccc21 [Example 21, (S)-2-acrylamido-N-(5-(2-(2-aminopyridin-3-yl)-5-(1H-pyrazol-1-yl)-3H-imidazo[4,5-b]pyridin-3-yl)-2,3-dihydro-1H-inden-1-yl)-4-fluorobenzamide]	0.0328 µM	0.0748 µM	0.0226 µM	0.0885 µM	
C=CC(=O)N1CCC(N[C@H]2CCc3cc(-n4c(-c5cccnc5N)nc5ccc(-n6cccn6)nc54)ccc32)C(C)C1 (single isomer, unassigned) [Example 99, 1-((3*,4*)-4-(((S)-5-(2-(2-aminopyridin-3-yl)-5-(1H-pyrazol-1-yl)-3H-imidazo[4,5-b]pyridin-3-yl)-2,3-dihydro-1H-inden-1-yl)amino)-3-methylpiperidin-1-yl)prop-2-en-1-one]	0.0894 µM	0.56 µM	0.0334 µM		0.716 µM
C=CC(=O)N1CCC(N[C@H]2CCc3cc(-n4c(-c5cccnc5N)nc5ccc(-n6cccn6)nc54)ccc32)C(C#N)C1 (single isomer, unassigned) [Example 156, (3*,4*)-1-acryloyl-4-(((S)-5-(2-(2-aminopyridin-3-yl)-5-(1H-pyrazol-1-yl)-3H-imidazo[4,5-b]pyridin-3-yl)-2,3-dihydro-1H-inden-1-yl)amino)piperidine-3-carbonitrile]	0.0113 µM	0.0647 µM	0.0098 µM		0.0302 µM
C=CC(=O)N1CCC(N[C@H]2CCc3cc(-n4c(-c5cccnc5N)nc5ccc(N6CC[C@@H](F)C6)nc54)ccc32)CC1 [Example 194, 1-(4-{[(1S)-5-[2-(2-aminopyridin-3-yl)-5-[(3R)-3-fluoropyrrolidin-1-yl]imidazo[4,5-b]pyridin-3-yl]-2,3-dihydro-1H-inden-1-yl]amino}piperidin-1-yl)prop-2-en-1-one]	0.0138 µM	0.142 µM	0.446 µM	0.31 µM	
C=CC(=O)N1CCC(N[C@H]2CCc3cc(-n4c(-c5cccnc5N)nc5ccc(-n6cccn6)nc54)ccc32)C[C@H]1C (single isomer, unassigned) [Example 62, 1-((2R,4*)-4-(((S)-5-(2-(2-aminopyridin-3-yl)-5-(1H-pyrazol-1-yl)-3H-imidazo[4,5-b]pyridin-3-yl)-2,3-dihydro-1H-inden-1-yl)amino)-2-methylpiperidin-1-yl)prop-2-en-1-one]	0.00839 µM	0.0317 µM	0.00935 µM		0.0171 µM
C=CC(=O)N1CCC(N[C@@H]2CCc3cc(-n4c(-c5cccnc5N)nc5ccc(-n6cccn6)nc54)ccc32)CC1 [Example 149, 1-(4-{[(1R)-5-[2-(2-aminopyridin-3-yl)-5-(pyrazol-1-yl)imidazo[4,5-b]pyridin-3-yl]-2,3-dihydro-1H-inden-1-yl]amino}piperidin-1-yl)prop-2-en-1-one]	0.0608 µM	0.189 µM	0.0235 µM	0.109 µM	
C=CC(=O)N1CCC(N[C@@H]2c3ccc(-n4c(-c5cccnc5N)nc5ccc(-n6cccn6)nc54)cc3CC2F)C[C@H]1C (single isomer, unassigned) [Example 143, 1-((2R,4*)-4-(((1R,2*)-5-(2-(2-aminopyridin-3-yl)-5-(1H-pyrazol-1-yl)-3H-imidazo[4,5-b]pyridin-3-yl)-2-fluoro-2,3-dihydro-1H-inden-1-yl)amino)-2-methylpiperidin-1-yl)prop-2-en-1-one]	0.353 µM	1.26 µM	0.0602 µM	0.499 µM	
C=CC(=O)N1CC2(CCCC(N[C@H]3CCc4cc(-n5c(-c6cccnc6N)nc6ccc(-n7cccn7)nc65)ccc43)C2)C1 (single isomer, unassigned) [Example 79, 1-((*)-6-(((S)-5-(2-(2-aminopyridin-3-yl)-5-(1H-pyrazol-1-yl)-3H-imidazo[4,5-b]pyridin-3-yl)-2,3-dihydro-1H-inden-1-yl)amino)-2-azaspiro[3.5]nonan-2-yl)prop-2-en-1-one]	0.0142 µM	0.0271 µM	0.0119 µM	0.0168 µM	
C=CC(=O)N1CCCC(N[C@H]2CCc3cc(-n4c(-c5cccnc5N)nc5ccc(-n6cccn6)nc54)ccc32)C1 (single isomer, unassigned) [Example 125, 1-[(3*)-3-{[(1S)-5-[2-(2-aminopyridin-3-yl)-5-(pyrazol-1-yl)imidazo[4,5-b]pyridin-3-yl]-2,3-dihydro-1H-inden-1-yl]amino}piperidin-1-yl]prop-2-en-1-one]	0.914 µM	3.28 µM	0.292 µM		2.11 µM

The next lines start with the values.

IC50 (AKT1 E17K)	IC50 (AKT2)	IC50 (AKT1 WT)	IC50 ([1]; Homo sapiens, LAPC4, 72 h)	IC50 ([1]; 72 h)	Structure (SMILES)
0.0359 µM	0.511 µM	0.02 µM	0.287 µM		C=CC(=O)N1CCC(N[C@@H]2c3ccc(-n4c(-c5cccnc5N)nc5ccc(-n6cccn6)nc54)cc3C[C@H]2F)CC1 [Example 75, 1-(4-(((1R,2R)-5-(2-(2-aminopyridin-3-yl)-5-(1H-pyrazol-1-yl)-3H-imidazo[4,5-b]pyridin-3-yl)-2-fluoro-2,3-dihydro-1H-inden-1-yl)amino)piperidin-1-yl)prop-2-en-1-one]
0.039 µM	0.283 µM	0.703 µM	0.54 µM		C=CC(=O)N1CCC(N[C@H]2CCc3cc(-n4c(-c5cccnc5N)nc5ccc(C6CC(F)(F)C6)nc54)ccc32)CC1 [Example 227, 1-(4-{[(1S)-5-[2-(2-aminopyridin-3-yl)-5-(3,3-difluorocyclobutyl)imidazo[4,5-b]pyridin-3-yl]-2,3-dihydro-1H-inden-1-yl]amino}piperidin-1-yl)prop-2-en-1-one]
0.0269 µM	0.0296 µM	0.00931 µM	0.0274 µM		C=CC(=O)N1CCC(N[C@H]2CCc3cc(-n4c(-c5cccnc5N)nc5ccc(-c6cnn(C)n6)nc54)ccc32)CC1 [Example 160, 1-(4-{[(1S)-5-[2-(2-aminopyridin-3-yl)-5-(2-methyl-1,2,3-triazol-4-yl)imidazo[4,5-b]pyridin-3-yl]-2,3-dihydro-1H-inden-1-yl]amino}piperidin-1-yl)prop-2-en-1-one]
0.0487 µM	0.18 µM	0.0215 µM		0.0877 µM	C=CC(=O)N1[C@H](C)CC(N[C@H]2CCc3cc(-n4c(-c5cccnc5N)nc5ccc(-n6cccn6)nc54)ccc32)C[C@@H]1C (single isomer, unassigned) [Example 88, 1-((2S,4*,6R)-4-(((R)-5-(2-(2-aminopyridin-3-yl)-5-(1H-pyrazol-1-yl)-3H-imidazo[4,5-b]pyridin-3-yl)-2,3-dihydro-1H-inden-1-yl)amino)-2,6-dimethylpiperidin-1-yl)prop-2-en-1-one]
0.00703 µM	0.0259 µM	0.00429 µM	0.65 µM		C=CC(=O)Nc1cc(C(=O)N[C@H]2CCc3cc(-n4c(-c5cccnc5N)nc5ccc(-n6cccn6)nc54)ccc32)ccn1 [Example 11, (S)-2-acrylamido-N-(5-(2-(2-aminopyridin-3-yl)-5-(1H-pyrazol-1-yl)-3H-imidazo[4,5-b]pyridin-3-yl)-2,3-dihydro-1H-inden-1-yl)isonicotinamide]
0.0372 µM	0.666 µM	0.679 µM	0.667 µM		C=CC(=O)N1CCC(N[C@H]2CCc3cc(-n4c(-c5cccnc5N)nc5ccc(N6CCC(F)CC6)nc54)ccc32)CC1 [Example 238, 1-(4-{[(1S)-5-[2-(2-aminopyridin-3-yl)-5-(4-fluoropiperidin-1-yl)imidazo[4,5-b]pyridin-3-yl]-2,3-dihydro-1H-inden-1-yl]amino}piperidin-1-yl)prop-2-en-1-one]
0.0784 µM	1.58 µM	0.0229 µM		0.448 µM	C=CC(=O)N1CCC(N[C@@H]2c3ccc(-n4c(-c5cccnc5N)nc5ccc(-n6cccn6)nc54)cc3CC2F)C[C@H]1C (single isomer, unassigned) [Example 146, 1-((2R,4*)-4-(((1R,2*)-5-(2-(2-aminopyridin-3-yl)-5-(1H-pyrazol-1-yl)-3H-imidazo[4,5-b]pyridin-3-yl)-2-fluoro-2,3-dihydro-1H-inden-1-yl)amino)-2-methylpiperidin-1-yl)prop-2-en-1-one]
0.0297 µM	0.114 µM	0.0135 µM		0.0419 µM	C=CC(=O)N1CCC(N[C@H]2CCc3cc(-n4c(-c5cccnc5N)nc5ccc(-n6cccn6)nc54)ccc32)C(O)C1 (single isomer, unassigned) [Example 139, 1-[(3*,4*)-4-{[(1S)-5-[2-(2-aminopyridin-3-yl)-5-(pyrazol-1-yl)imidazo[4,5-b]pyridin-3-yl]-2,3-dihydro-1H-inden-1-yl]amino}-3-hydroxypiperidin-1-yl]prop-2-en-1-one]
0.475 µM	4.1 µM	0.058 µM		0.489 µM	C=CC(=O)N1CCC(N[C@H]2CCc3cc(-n4c(-c5cccnc5N)nc5ccc(-n6cccn6)nc54)ccc32)C[C@@H]1COC (single isomer, unassigned) [Example 164, 1-((2R,4*)-4-(((S)-5-(2-(2-aminopyridin-3-yl)-5-(1H-pyrazol-1-yl)-3H-imidazo[4,5-b]pyridin-3-yl)-2,3-dihydro-1H-inden-1-yl)amino)-2-(methoxymethyl)piperidin-1-yl)prop-2-en-1-one]
